Measurements as given in the supplement of paper PMC4314810.
± gives the standard deviation of the averaged measurements.

Tested on: MCF7
Assay: HRG-induced Akt activation (dPAkt = log2 pAkt/Akt HRG-stimulated minus log2 pAkt/Akt basal) (log2 ratio difference); higher = stronger HRG-induced Akt(T308) phosphorylation
Settings: miRNA mimic concentration 10 nM; time after transfection 72 h; heregulin 10 ng/ml; stimulation time 1 h
Method in brief: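 MCF7 cells were plated […] in 96-well plates and transfected in two biological replicates with a library of 879 miRNA mimics (10 nM final) using Lipofectamine RNAiMax; 72 h later they were stimulated for 1 h with 10 ng/ml heregulin-beta1 or left unstimulated. After fixation in 4% PFA, phospho-Akt(T308) and total Akt were measured by In-Cell Western on an Odyssey, with signals corrected for column-wise fixation decay. Heregulin-induced Akt activation is the stimulated minus unstimulated value of the log ratio of phospho-Akt to total Akt, averaged over replicates. That log ratio is log2(pAkt/Akt).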

Sequence	HRG-induced Akt activation (log2)
CAGUGGUUUUACCCUAUGGUAG	1.91 ± 0.035
CAGUUAUCACAGUGCUGAUGCU	1.66 ± 0.42
CAUAAAGUAGAAAGCACUACU	1.54 ± 0.062
CAUCAUCGUCUCAAAUGAGUCU	1.91 ± 0.32
CAUCCCUUGCAUGGUGGAGGG	1.97 ± 0.25
CAUCUUACCGGACAGUGCUGGA	1.841 ± 0.015
CAUCUUACUGGGCAGCAUUGGA	2.05 ± 0.12
CAUCUUCCAGUACAGUGUUGGA	1.73 ± 0.073
CAUGCCUUGAGUGUAGGACCGU	1.16 ± 0.11
CAUGGUUCUGUCAAGCACCGCG	1.34 ± 0.18
CAUUAUUACUUUUGGUACGCG	1.58 ± 0.02
CAUUGCACUUGUCUCGGUCUGA	1.74 ± 0.8
CCAAAACUGCAGUUACUUUUGC	1.39 ± 0.13
CCAAUAUUACUGUGCUGCUUUA	1.45 ± 0.28
CCAAUAUUGGCUGUGCUGCUCC	1.32 ± 0.36
CCACACCGUAUCUGACACUUU	1.36 ± 0.12
CCACCACCGUGUCUGACACUU	1.84 ± 0.088
CCAGACAGAAUUCUAUGCACUUUC	1.93 ± 0.7
CCAGUAUUAACUGUGCUGCUGA	1.55 ± 0.32
CCAGUCCUGUGCCUGCCGCCU	1.88 ± 0.41
CCAGUGGGGCUGCUGUUAUCUG	1.78 ± 0.29
CCAGUUACCGCUUCCGCUACCGC	1.323 ± 0.011
CCAUGGAUCUCCAGGUGGGU	1.47 ± 0.17
CCCAGAUAAUGGCACUCUCAA	1.55 ± 0.12

Sequence	HRG-induced Akt activation (log2)
CCCAGUGUUCAGACUACCUGUUC	1.28 ± 0.6
CCCAGUGUUUAGACUAUCUGUUC	1.58 ± 0.18
CCCCACCUCCUCUCUCCUCAG	1.28 ± 0.38
CCCCAGGGCGACGCGGCGGG	2.057 ± 0.012
CCCCCACAACCGCGCUUGACUAGCU	1.4 ± 0.091
CCCGGAGCCAGGAUGCAGCUC	1.79 ± 0.39
CCCUGUGCCCGGCCCACUUCUG	1.19 ± 0.05
CCGUCGCCGCCACCCGAGCCG	1.23 ± 0.13
CCUAGUAGGUGUCCAGUAAGUGU	1.04 ± 0.63
CCUAUUCUUGAUUACUUGUUUC	1.273 ± 0.0028
CCUAUUCUUGGUUACUUGCACG	1.29 ± 0.1
CCUCAGGGCUGUAGAACAGGGCU	1.49 ± 0.21
CCUCCCACACCCAAGGCUUGCA	1.37 ± 0.3
CCUCCUGCCCUCCUUGCUGU	2.4 ± 0.096
CCUCUAGAUGGAAGCACUGUCU	1.41 ± 0.026
CCUCUGAAAUUCAGUUCUUCAG	1.76 ± 0.071
CCUCUGGGCCCUUCCUCCAG	0.844 ± 0.012
CCUCUUCCCCUUGUCUCUCCAG	1.52 ± 0.031
CCUGCAGCGACUUGAUGGCUUCC	0.841 ± 0.6
CCUGGAAACACUGAGGUUGUG	1.61 ± 0.12
CCUGUUCUCCAUUACUUGGCUC	1.53 ± 0.36
CCUGUUGAAGUGUAAUCCCCA	1.21 ± 0.058
CGAAAACAGCAAUUACCUUUGC	1.364 ± 0.0018
CGAAUCAUUAUUUGCUGCUCUA	1.44 ± 0.25

Sequence	HRG-induced Akt activation (log2)
CGCAGGGGCCGGGUGCUCACCG	1.59 ± 0.09
CGCAUCCCCUAGGGCAUUGGUGU	2.62 ± 0.28
CGCGGGUGCUUACUGACCCUU	3.25 ± 0.033
CGGAUGAGCAAAGAAAGUGGUU	1.19 ± 0.07
CGGCAACAAGAAACUGCCUGAG	1.46 ± 0.68
CGGCCCGGGCUGCUGCUGUUCCU	1.09 ± 0.4
CGGCGGGGACGGCGAUUGGUC	2.14 ± 0.33
CGGCUCUGGGUCUGUGGGGA	1.13 ± 0.17
CGGGCGUGGUGGUGGGGG	1.56 ± 0.11
CGGGGCAGCUCAGUACAGGAU	0.9798 ± 0.0068
CGGGGUUUUGAGGGCGAGAUGA	2.25 ± 0.089
CGGGUCGGAGUUAGCUCAAGCGG	1.44 ± 0.098
CGGGUGGAUCACGAUGCAAUUU	2.37 ± 0.063
CGUCAACACUUGCUGGUUUCCU	2.32 ± 0.12
CGUCUUACCCAGCAGUGUUUGG	1.73 ± 0.13
CGUGCCACCCUUUUCCCCAG	1.18 ± 0.34
CGUGUAUUUGACAAGCUGAGUU	2.29 ± 0.19
CGUGUUCACAGCGGACCUUGAU	1.89 ± 0.39
CUAAUAGUAUCUACCACAAUAAA	1.84 ± 0.24
CUACAAAGGGAAGCACUUUCUC	1.96 ± 0.15
CUACAAAGGGAAGCCCUUUC	1.62 ± 0.21
CUAGACUGAAGCUCCUUGAGG	1.46 ± 0.25
CUAGGUAUGGUCCCAGGGAUCC	1.26 ± 0.24
CUAGUGAGGGACAGAACCAGGAUUC	1.82 ± 0.032

Sequence	HRG-induced Akt activation (log2)
CUAUACAACCUACUGCCUUCCC	1.27 ± 0.16
CUAUACAAUCUACUGUCUUUC	1.11 ± 0.051
CUAUACAAUCUAUUGCCUUCCC	1.44 ± 0.43
CUAUACAGUCUACUGUCUUUCC	1.85 ± 0.18
CUAUACGACCUGCUGCCUUUCU	1.47 ± 0.14
CUAUACGGCCUCCUAGCUUUCC	1.9 ± 0.13
CUCAGUAGCCAGUGUAGAUCCU	1.53 ± 0.16
CUCAUCUGCAAAGAAGUAAGUG	1.5 ± 0.58
CUCCAGAGGGAAGUACUUUCU	2.02 ± 0.14
CUCCAGAGGGAUGCACUUUCU	1.83 ± 0.3
CUCCCACAUGCAGGGUUUGCA	1.81 ± 0.022
CUCCCACUGCUUCACUUGACUA	1.32 ± 0.27
CUCCGUUUGCCUGUUUCGCUG	2.07 ± 0.2
CUCCUACAUAUUAGCAUUAACA	1.12 ± 0.31
CUCCUAUAUGAUGCCUUUCUUC	1.72 ± 0.36
CUCCUGACUCCAGGUCCUGUGU	1.43 ± 0.33
CUCCUGAGCCAUUCUGAGCCUC	1.48 ± 0.25
CUCGGCGCGGGGCGCGGGCUCC	1.37 ± 0.015
CUCUAGAGGGAAGCACUUUCUC	1.85 ± 0.4
CUCUAGAGGGAAGCACUUUCUG	2.15 ± 0.078
CUCUAGAGGGAAGCGCUUUCUG	1.51 ± 0.15
CUCUCACCACUGCCCUCCCACAG	1.9 ± 0.13
CUCUUGAGGGAAGCACUUUCUGU	2.16 ± 0.45
CUGAAGCUCAGAGGGCUCUGAU	1.38 ± 0.13

Sequence	HRG-induced Akt activation (log2)
CUGAAGUGAUGUGUAACUGAUCAG	1.727 ± 0.0053
CUGACCUAUGAAUUGACAGCC	1.18 ± 0.15
CUGACUGUUGCCGUCCUCCAG	1.53 ± 0.13
CUGCAAAGGGAAGCCCUUUC	1.21 ± 0.33
CUGCAAUGUAAGCACUUCUUAC	0.874 ± 0.36
CUGCCAAUUCCAUAGGUCACAG	1.47 ± 0.11
CUGCCCUGGCCCGAGGGACCGA	1.21 ± 0.096
CUGCGCAAGCUACUGCCUUGCU	1.07 ± 0.26
CUGGACUGAGCCGUGCUACUGG	1.98 ± 0.076
CUGGAGAUAUGGAAGAGCUGUGU	1.14 ± 0.047
CUGGAUGGCUCCUCCAUGUCU	1.96 ± 0.42
CUGGCCCUCUCUGCCCUUCCGU	1.18 ± 0.4
CUGGGAGAAGGCUGUUUACUCU	1.04 ± 0.2
CUGGGAGAGGGUUGUUUACUCC	0.876 ± 0.34
CUGGGAGGUGGAUGUUUACUUC	0.961 ± 0.055
CUGGGAUCUCCGGGGUCUUGGUU	2 ± 0.076
CUGGUACAGGCCUGGGGGACAG	1.68 ± 0.29
CUGGUUUCACAUGGUGGCUUAG	2.33 ± 0.15
CUGUAAUAUAAAUUUAAUUUAUU	1.42 ± 0.037
CUGUACAGCCUCCUAGCUUUCC	2.26 ± 0.15
CUGUACAGGCCACUGCCUUGC	1.88 ± 0.41
